Test results as given in ChEMBL document CHEMBL6083252, “Synthesis and evaluation of novel tetrahydroisoquinoline-benzo[h]chromen-4-one conjugates as dual ABCB1/CYP1B1 inhibitors for overcoming MDR in cancer” (Bioorg Med Chem, 2024).
pIC50: −log10 of the molar value. Active and inactive are the calls of the source. The rule behind the calls is not given here.

How the values were obtained:
SW-620 = test: Cytotoxicity against human SW620 cells assessed as inhibition of cell growth at 5 uM incubated for 48 hrs by CCK8 assay; format: functional; design: scale not given: the % may be the effect or the level left
SW620/AD300 [1] = test: Cytotoxicity against human SW620/AD300 cells assessed as inhibition of cell growth at 5 uM incubated for 48 hrs by CCK8 assay; format: functional; design: scale not given: the % may be the effect or the level left
SW620/AD300 [2] = test: Reversal of multidrug resistance in human SW620/AD300 cells assessed as decrease in doxorubicin IC50 at 5 uM in presence of doxorubicin (reference value: 11.10 +/- 1.61 uM); format: functional, cell-based
SW620/AD300 [3] = test: Reversal of multidrug resistance in human SW620/AD300 cells assessed as reversal fold by measuring ratio of doxorubicin IC50 to doxorubicin IC50 in presence of test compound at 5 uM; format: functional
[4] = Reversal of docetaxel resistance in human DU-145 cells transfected with CYP1B1 assessed as decrease in docetaxel IC50 at 5 uM (reference value: 23.5 +/- 3.04 nM); format: functional, cell-based
DU-145 = test: Cytotoxicity against human DU-145 cells assessed as inhibition of cell growth at 5 uM incubated for 48 hrs by CCK8 assay; format: functional, cell-based
[5] = test system: MKN45-DDP-R (Cisplatin-resistant MKN45 cells); test: Reversal of cisplatin resistance in human MKN45-DDP-R cells expressing CYP1B1 at 5 uM in presence of cisplatin; format: functional, cell-based
[6] = Reversal of drug resistance in human DOX-SW620/AD300-1B1 cells assessed as decrease in doxorubicin IC50 at 5 uM after 48 hrs in presence of doxorubicin by CCK8 assay (reference value: 64.5 +/- 30 uM); format: functional, cell-based; details: DOX-SW620/AD300-1B1, 48 h
[7] = target: ATP-dependent translocase ABCB1 (Homo sapiens, UniProt P08183); test: Inhibition of P-gp in human SW620/AD300 cells assessed as increase in intracellular Rh123 accumulation at 5 uM incubated for 4 hrs by flow cytometry analysis; format: cell-based; details: sw620/ad300, 4 h
Chain of ATP-dependent translocase ABCB1 (P08183 whole entry): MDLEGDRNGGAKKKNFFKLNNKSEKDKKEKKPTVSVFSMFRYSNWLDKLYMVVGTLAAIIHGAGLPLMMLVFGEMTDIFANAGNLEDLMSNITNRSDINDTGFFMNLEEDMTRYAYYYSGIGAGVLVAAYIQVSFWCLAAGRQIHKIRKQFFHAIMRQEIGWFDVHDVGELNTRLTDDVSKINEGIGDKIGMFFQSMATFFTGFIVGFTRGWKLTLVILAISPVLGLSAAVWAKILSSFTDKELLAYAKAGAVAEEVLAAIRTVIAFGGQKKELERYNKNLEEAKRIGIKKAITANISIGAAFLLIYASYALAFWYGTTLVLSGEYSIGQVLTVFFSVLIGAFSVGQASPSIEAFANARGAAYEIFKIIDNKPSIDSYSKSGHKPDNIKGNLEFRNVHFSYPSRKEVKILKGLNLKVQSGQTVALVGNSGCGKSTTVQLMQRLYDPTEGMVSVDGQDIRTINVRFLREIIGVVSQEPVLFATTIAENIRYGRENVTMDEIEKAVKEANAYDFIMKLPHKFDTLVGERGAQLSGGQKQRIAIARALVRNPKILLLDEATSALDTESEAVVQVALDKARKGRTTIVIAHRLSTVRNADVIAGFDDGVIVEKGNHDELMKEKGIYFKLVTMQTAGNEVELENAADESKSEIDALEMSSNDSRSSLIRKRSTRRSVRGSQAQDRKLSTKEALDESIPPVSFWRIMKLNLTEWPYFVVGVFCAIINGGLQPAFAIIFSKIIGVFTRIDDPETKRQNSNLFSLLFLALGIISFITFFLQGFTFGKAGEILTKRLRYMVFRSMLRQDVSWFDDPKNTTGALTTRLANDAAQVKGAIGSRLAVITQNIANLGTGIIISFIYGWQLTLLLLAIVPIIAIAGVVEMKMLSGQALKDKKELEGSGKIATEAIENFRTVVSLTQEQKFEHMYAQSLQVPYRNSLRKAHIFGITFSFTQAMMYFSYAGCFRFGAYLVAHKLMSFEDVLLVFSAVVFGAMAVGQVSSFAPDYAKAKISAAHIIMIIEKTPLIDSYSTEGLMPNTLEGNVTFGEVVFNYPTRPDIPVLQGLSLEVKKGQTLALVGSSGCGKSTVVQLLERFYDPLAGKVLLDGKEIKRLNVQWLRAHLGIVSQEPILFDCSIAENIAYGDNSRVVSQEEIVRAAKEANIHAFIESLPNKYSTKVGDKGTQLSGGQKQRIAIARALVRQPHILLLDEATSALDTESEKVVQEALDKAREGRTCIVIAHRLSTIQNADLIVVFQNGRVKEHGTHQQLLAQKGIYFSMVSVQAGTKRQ

Cytochrome P450 1B1 = target: T1, Cytochrome P450 1B1 (Homo sapiens, UniProt Q16678); test: Inhibition of recombinant human CYP1B1 at 0.5 uM using 7-Ethoxyresorufin as substrate incubated for 35 mins in presence of NADPH by microplate reader assay; format: ADME; details: recombinant enzyme
T1 sequence (Q16678 whole entry): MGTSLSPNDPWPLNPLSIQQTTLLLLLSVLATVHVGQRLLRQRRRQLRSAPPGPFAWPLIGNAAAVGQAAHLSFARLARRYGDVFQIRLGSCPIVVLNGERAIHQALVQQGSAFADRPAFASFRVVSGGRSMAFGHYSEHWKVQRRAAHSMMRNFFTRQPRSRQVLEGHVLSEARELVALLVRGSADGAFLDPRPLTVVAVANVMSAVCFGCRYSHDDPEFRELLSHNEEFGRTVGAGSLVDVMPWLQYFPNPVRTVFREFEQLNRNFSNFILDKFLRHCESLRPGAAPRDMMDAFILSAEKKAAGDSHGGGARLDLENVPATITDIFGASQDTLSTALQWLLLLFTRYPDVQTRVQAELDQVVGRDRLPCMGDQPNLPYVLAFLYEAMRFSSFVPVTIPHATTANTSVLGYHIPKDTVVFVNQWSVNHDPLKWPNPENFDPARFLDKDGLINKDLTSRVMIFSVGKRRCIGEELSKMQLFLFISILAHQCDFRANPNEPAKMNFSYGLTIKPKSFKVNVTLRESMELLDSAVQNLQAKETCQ

SW620/AD300 [8] = test: Downregulation of P-gp expression in human SW620/AD300 cells at 10 uM incubated for 24 hrs by immunofluorescence assay; format: functional, cell-based
SW620/AD300 [9] = test: Downregulation of P-gp expression in human SW620/AD300 cells upto 30 uM incubated for 24 hrs by Western blotting assay; format: functional, cell-based
[10] = test system: MKN45-DDP-R (Cisplatin-resistant MKN45 cells); test: Inhibition of cell migration in human MKN45-DDP-R cells at over 1 uM incubated for 24 hrs by scratch wound healing based inverted microscopic analysis; format: functional
[11] = Induction of apoptosis in human MKN45-DDP-R cells assessed as necrotic cells at 3 uM incubated for 48 hrs by Annexin V-FITC/PI staining based flow cytometry analysis (reference value: 0.76%); format: functional, MKN45-DDP-R (Cisplatin-resistant MKN45 cells)
SW620/AD300 [12] = test: Cytotoxicity against human SW620/AD300 cells assessed as inhibition of cell growth incubated for 48 hrs by CCK8 assay; format: functional, cell-based; details: SW620/AD300, 48 h
[13] = Cytotoxicity against human MKN45-DDP-R cells assessed as inhibition of cell growth incubated for 48 hrs by CCK8 assay; format: functional, cell-based; details: MKN45-DDP-R (Cisplatin-resistant MKN45 cells)
[14] = Induction of apoptosis in human MKN45-DDP-R cells assessed as early apoptotic cells at 3 uM incubated for 48 hrs by Annexin V-FITC/PI staining based flow cytometry analysis (reference value: 3.70%); format: functional, MKN45-DDP-R (Cisplatin-resistant MKN45 cells)
[15] = Induction of apoptosis in human MKN45-DDP-R cells assessed as viable cells at 6 uM incubated for 48 hrs by Annexin V-FITC/PI staining based flow cytometry analysis (reference value: 94.7%); format: functional; details: MKN45-DDP-R (Cisplatin-resistant MKN45 cells), read-out: Activity
[16] = Induction of apoptosis in human MKN45-DDP-R cells assessed as necrotic cells at 6 uM incubated for 48 hrs by Annexin V-FITC/PI staining based flow cytometry analysis (reference value: 0.76%); format: functional, MKN45-DDP-R (Cisplatin-resistant MKN45 cells)
[17] = test system: MKN45-DDP-R (Cisplatin-resistant MKN45 cells); test: Upregulation of PUMA expression level in human MKN45-DDP-R cells at 6 to 12 uM incubated for 48 hrs by Western blotting assay; format: functional, cell-based; details: dose 6-12 µM
[18] = test system: MKN45-DDP-R (Cisplatin-resistant MKN45 cells); test: Inhibition of colony formation in human MKN45-DDP-R cells assessed as decrease in colony size incubated for 48 hrs followed by media replacement and cultured for 12 days by crystal violet staining based assay; format: functional, cell-based; details: dose 1-3 µM
[19] = Induction of apoptosis in human MKN45-DDP-R cells assessed as viable cells at 3 uM incubated for 48 hrs by Annexin V-FITC/PI staining based flow cytometry analysis (reference value: 94.7%); format: functional; details: MKN45-DDP-R (Cisplatin-resistant MKN45 cells), read-out: Activity
[20] = Induction of apoptosis in human MKN45-DDP-R cells assessed as early apoptotic cells at 6 uM incubated for 48 hrs by Annexin V-FITC/PI staining based flow cytometry analysis (reference value: 3.70%); format: functional, MKN45-DDP-R (Cisplatin-resistant MKN45 cells)
[21] = Induction of apoptosis in human MKN45-DDP-R cells assessed as late apoptotic cells at 6 uM incubated for 48 hrs by Annexin V-FITC/PI staining based flow cytometry analysis (reference value: 0.89%); format: functional, MKN45-DDP-R (Cisplatin-resistant MKN45 cells)
[22] = Induction of apoptosis in human MKN45-DDP-R cells assessed as late apoptotic cells at 3 uM incubated for 48 hrs by Annexin V-FITC/PI staining based flow cytometry analysis (reference value: 0.89%); format: functional, MKN45-DDP-R (Cisplatin-resistant MKN45 cells)
SW620/AD300 [23] = test: Effect on P-gp protein expression in human SW620/AD300 cells at 5 to 30 uM by Western blotting assay; format: functional, cell-based; details: dose 5-30 µM
SW620/AD300 [24] = test: Effect on P-gp protein expression in human SW620/AD300 cells at 5 uM incubated for 24 hrs by immunofluorescence assay; format: functional, cell-based
[25] = test system: MKN45-DDP-R (Cisplatin-resistant MKN45 cells); test: Inhibition of colony formation in human MKN45-DDP-R cells assessed as decrease in colony number incubated for 48 hrs followed by media replacement and cultured for 12 days by crystal violet staining based assay; format: functional, cell-based; details: dose 1-3 µM
[26] = test system: MKN45-DDP-R (Cisplatin-resistant MKN45 cells); test: Effect on lipid peroxidation level in human MKN45-DDP-R cells at 10 uM incubated for 24 hrs by BODIPY 581/591 C11 probe based flow cytometry assay; format: functional, cell-based
[27] = Cytotoxicity against human DOX-SW620/AD300-1B1 cells assessed as inhibition of cell growth incubated for 48 hrs by CCK8 assay; format: functional, cell-based; details: DOX-SW620/AD300-1B1, 48 h

Row | SMILES | Activity (SW-620) [%] | Activity (SW620/AD300 [1]) [%] | pIC50 (SW620/AD300 [2]) | Ratio IC50 (SW620/AD300 [3]) | pIC50 [4] | Activity (DU-145) | also measured
1 | COc1cc2c(cc1OC)CN(CCN1CCN(C(=O)c3cc(=O)c4ccc5ccccc5c4o3)CC1)CC2 | 11.06 | 15.35 | 6.18 | 16.8 | – | – | –
2 | COc1cc2c(cc1OC)CN(C(=O)Cn1cc(-c3ccc(-c4cc(=O)c5ccc6ccccc6c5o4)cc3)nn1)CC2 | 22.19 | 26.85 | 5.64 | 4.8 | 8.47 | Active; Lower Cytotoxicity Than Anf And Wk-X-37 | Activity [5]: Active
3 | COc1cc2c(cc1OC)CN(C(=O)c1cc(=O)c3cc(OC)c4ccccc4c3o1)CC2 | 4.62 | 3.49 | 5.13 | 1.4 | 7.94 | Active; Lower Cytotoxicity Than Anf And Wk-X-35 | –
4 | COc1cc2c(cc1OC)CN(C(=O)C1CCN(C(=O)c3cc(=O)c4cc(OC)c5ccccc5c4o3)CC1)CC2 | 13.03 | 4.05 | 5.66 | 5 | – | – | –
5 | COc1ccc(C(=O)Nc2ccccc2C(=O)Nc2ccc(CCN3CCc4cc(OC)c(OC)cc4C3)cc2)cc1OC | 8.91 | 6.53 | 6.55 | 39.6 | 8.06 | Active; Lower Cytotoxicity Than Anf And Wk-X-38 | pIC50 [6]: 4.40; inhibition (INH) [7]: Active; inhibition (INH) (Cytochrome P450 1B1): Active
6 | COc1cc2c(cc1OC)CN(C(=O)c1cc(=O)c3ccc4ccccc4c3o1)CC2 | 8.82 | 15.57 | 5.19 | 1.7 | – | – | –
7 | COc1cc2c(cc1OC)CN(CCc1ccc(NC(=O)c3cc(=O)c4cc(OC)c5ccccc5c4o3)cc1)CC2 | 32.77 | 17.28 | 6.60 | 44.4 | 8.24 | Active; Lower Cytotoxicity Than Anf And Wk-X-36 | Activity (SW620/AD300 [8]): inactive; pIC50 [6]: 5.33; Activity (SW620/AD300 [9]): inactive; Activity [5]: Active
8 | COc1cc2c(cc1OC)CN(CCNC(=O)c1cc(=O)c3cc(OC)c4ccccc4c3o1)CC2 | 28.94 | 34.64 | 6.33 | 23.6 | – | – | –
9 | COc1cc2c(cc1OC)CN(CCNC(=O)c1cc(=O)c3ccc4ccccc4c3o1)CC2 | 51.29 | 55.04 | 5.28 | 2.1 | – | – | inhibition [10]: Active; Activity [11]: 0.58%; pIC50 (SW620/AD300 [12]): 5.04; pIC50 [13]: 5.18; Activity [14]: 15%; viability at 6 µM [15]: 58%; Activity [16]: 0.73%; Activity [17]: Active; inhibition [18]: Dose-dependent-effect; viability at 3 µM [19]: 81.1%; Activity [20]: 34.9%; Activity [21]: 6.41%; Activity [22]: 3.37%; Activity (SW620/AD300 [23]): inactive; Activity (SW620/AD300 [24]): inactive; inhibition [25]: Dose-dependent-effect; Activity [26]: inactive
10 | O=c1cc(-c2ccccc2)oc2c1ccc1ccccc12 [ALPHA-NAPHTHOFLAVONE] | – | – | – | – | 8.09 | Active; Lower Cytotoxicity Than Anf And Wk-X-39 | pIC50 [6]: 5.62; inhibition (INH) (Cytochrome P450 1B1): Active
11 | COc1cc2c(cc1OC)CN(CCc1ccc(NC(=O)c3ccccc3NC(=O)c3cc(=O)c4ccc5ccccc5c4o3)cc1)CC2 | 13.34 | 7.13 | 6.49 | 34.7 | 8.02 | Active; Lower Cytotoxicity Than Anf And Wk-X-34 | Activity (SW620/AD300 [8]): inactive; Activity (SW620/AD300 [9]): inactive
12 | COc1cccc2c1C(=O)c1c(O)c3c(c(O)c1C2=O)C[C@@](O)(C(=O)CO)C[C@@H]3O[C@H]1C[C@H](N)[C@H](O)[C@H](C)O1 [DOXORUBICIN] | 0.29 | – | – | – | – | – | pIC50 (SW620/AD300 [12]): 4.95; pIC50 [27]: 4.19
13 | COc1cc2c(cc1OC)CN(C(=O)C1CCN(C(=O)c3cc(=O)c4ccc5ccccc5c4o3)CC1)CC2 | 26.93 | 14.46 | 6.08 | 13.2 | – | – | –
14 | COc1cc2c(cc1OC)CN(CCc1ccc(NC(=O)c3cc(=O)c4ccc5ccccc5c4o3)cc1)CC2 | 13.57 | 20.08 | 6.40 | 27.8 | – | – | –
